Source: patent publication US20130296539A1, “MAGNETIC RESONANCE IMAGING AGENTS FOR CALCIFICATION” (priority 2012, published 2013)

How the values were obtained:
[1] = In-vitro UTE and GRE MRI of HA crystals bound by contrast agent; conditions: short incubation with HA crystals in PBS, UTE sequence TR=200 msec, TE=100 μsec
Experimental: (§1) MRI can be performed on a 1.5 T GE Signa clinical scanner equipped with a custom low-pass birdcage coil (10 cm length, 6 cm diameter). The custom UTE sequence is based on previous work in the field {Irarrazabal, 1995; Song, 1998}.
1 mM of [Gd^3+-DOTA]-Thr-Pam-Na is added to 5 mg of HA crystals in 50 μL PBS (pH 7.4) and is vortexed for 1 h at RT in a 1.5 mL Eppendorf tube. 5 mg HA in 1 mM of [Gd^3+-DOTA]-Thr and 50 μL PBS is used as a control. MRI, pre- and post-washing with 4×500 μL PBS, are acquired using an UTE sequence (TR=200 msec, TE=100 μsec) or conventional GRE sequence (TR=200 msec, TE=1.8 msec). Other acquisition parameters includes FOV=6 cm, slice thickness=5 mm, matrix size=256×256, NEX=4.

[2] = Contrast agent concentration and TR dependence of UTE MRI signals; conditions: 5 mg HA, 1 h at RT, washed with PBS, UTE MRI TE=100 μsec
Experimental: as §1
5 mg HA is placed in 1.5 mL plastic Eppendorf tubes, then 0, 0.1, 1, 10, or 100 μM [Gd^3+-DOTA]-Thr-Pam-Na in 50 μL PBS is added to each. After vortexing 1 h at RT, the crystals are washed with 4×500 μL PBS and UTE MRI acquisition is performed using a fixed TE=100 μsec and varying TR of 17, 50, 200, 500 msec. Other acquisition parameters includes FOV=11 cm, slice thickness=10 mm, matrix size=256×256, NEX=2.

[3] = Quantitation of calcium salt specificity by UTE MRI; conditions: 10 μM in PBS, 1 h at RT, UTE MRI before and after washing crystals
Experimental: as §1
5 mg of HA or the phosphate, oxalate, carbonate, or pyrophosphate salts of calcium is placed in 1.5 ml Eppendorf tube and is incubated with 10 μM [Gd^3+-DOTA]-Thr-Pam-Na in 50 μL PBS for 1 h at RT with continuous vortexing. UTE MRI acquisition is performed pre- and post-washing with 4×500 μL PBS using TR=200 msec and TE=100 μsec. Other acquisition parameters includes FOV=9 cm, slice thickness=10 mm, matrix size=256×256, NEX=2.

[4] = In-vivo UTE MRI of subcutaneously implanted HA crystals; conditions: mice, intravenous injection, minimum of 4 h of clearance; compared with microCT
Experimental: as §1
50 mg of HA crystals is taken in 300 μL PBS, is implanted subcutaneously at right flank of anesthetized mice. UTE MRI is taken after implantation of HA crystal using TR/TE=200 msec/100 μsec, FOV=6 cm, slice thickness=5 mm, matrix size=256×256. 4 μmol of [Gd^3+-DOTA]-Thr-Pam-Na in 300 μL saline is injected intravenously. After 4 h of clearance, an UTE MRI is taken with same parameters.

[Gd^3+-DOTA]-Thr-Pam-Na
Detection of HA crystals by UTE MRI [1]: able to detect HA crystals with high sensitivity
Lowest incubation concentration resulting in detectable signal enhancement [2]: 1 µM
Specificity for HA over other calcium salts [3]: more than three fold higher specificity for HA over other calcium salts
In-vivo detection of HA crystals by UTE MRI [4]: UTE MRI provides a sensitive detection of HA crystals in-vivo
